{"source": "paper PMC3944389", "about": "“Differential Neuroprotective Effects of 5′-Deoxy-5′-Methylthioadenosine” (PLoS ONE, 2014)", "key": {"[1]": {"system": "rat pure primary neuronal cultures", "test": "NMDA-induced caspase 3 activation in pure primary neuronal cultures", "assay_type": "cell-based", "conditions": "300 µM NMDA", "method": "Primary cultures of rat brain cortical neurons were prepared essentially as described previously. The fronto-lateral cortical lobes were dissected out of Sprague-Dawley embryonic day 17 fetuses and they were dissociated mechanically in Hanks' balanced solution. After centrifugation at 800×g for 5 min, the cells were resuspended in serum-free Neurobasal medium (GIBCO) supplemented with B27 (GIBCO) containing 2 mM L-glutamine, penicillin (20 units/ml) and streptomycin (5 µg/ml), and they were plated onto poly-L-lysine-coated 24-well culture plates or on poly-L-lysine-coated 6-well culture plates. […]\nTo assay N-methyl–D-aspartate (NMDA) excitotoxicity, primary cultures were seeded in 24-well plates at 15×10^4 cells/well, cultured for 7 days in vitro, and treated for different times with the vehicle alone (dimethyl sulfoxide (DMSO) 1%), NMDA (300 µM), NMDA (300 µM) + MTA (250 µM) or NMDA (300 µM) + MK-801, a NMDA receptor antagonist (10 µM). […] Caspase 3 activity was measured in these lysates one hour after the NMDA addition.\nCortical neurons, or mixed cortical neurons and glia, were seeded in poly-L-lysine-coated 6-well culture plates during 7 days in vitro before start the set of experiments. […] The extracts were then centrifuged at 5,000×g for 10 min at 4°C and the protein content was determined by the BCA protein assay. […]"}, "[2]": {"system": "Wistar rats, transient MCAO model of focal brain ischemia", "test": "Transient focal ischemia (MCAO), infarct volume by TTC staining", "assay_type": "in vivo, rat", "conditions": "30 mg/kg i.p. twice daily from 30 min after onset of ischemia, 3 days reperfusion; compared with vehicle", "method": "(§1) Male Wistar rats (270-300 g; Harlan) were subjected to transient focal ischemia for 90 min by producing right middle cerebral artery occlusion (MCAO) as described previously, followed by reperfusion for 3 days and MTA treatment (30 mg/kg, intraperitoneally –i.p.- twice daily) starting 30 min after the onset of ischemia (n = 5 in each experimental group). Cerebral blood flow was monitored transcranially with a laser Doppler flowmeter (Perimed) and the infarct volume was assessed by 2,3,5-triphenyltetrazolium chloride (TTC) staining. Transient forebrain ischemia was induced as described elsewhere, by occluding the vertebral and common carotid arteries (4VO) for 10 min, followed by reperfusion for 7 days and MTA treatment (as above) starting 30 min after the onset of ischemia (n = 5 in vehicle group; n = 6 in the […]). The effectiveness of the treatment was assessed by using fluoro-Jade C staining to measure the levels of degenerated neurons in the CA1 region of the hippocampal formation."}, "[3]": {"system": "Wistar rats, global brain ischemia", "test": "Transient forebrain (global) ischemia (4VO), Fluoro-Jade C staining of CA1", "assay_type": "in vivo, rat", "conditions": "30 mg/kg i.p. from 30 min after onset of ischemia, 7 days reperfusion; untreated 180±10", "method": "as §1\nFluoro-Jade C (Chemicon, Millipore) was used to visualize dying neurons in 10 µm frozen coronal sections pretreated for 15 min with 0.06% KMnO4. […] Cells were counted in the right and left hemispheres of each stained section, examining four sections from each experiment."}}}
{"substance": "5′-deoxy-5′-methylthioadenosine [MTA]", "values": [{"measurement": "survival of neurons exposed to NMDA (caspase 3 activity)", "setting": "[1]; co-treatment with MTA (100, 250 and 500 µM), 1 h", "result": "not enhanced"}, {"measurement": "caspase 3 activity induced by NMDA", "setting": "[1]; pre-treatment 15 min before NMDA, MTA 100, 250 and 500 µM", "result": "decreased significantly"}, {"measurement": "volume of the infarct area", "setting": "[2]", "result": "did not show any reduction"}, {"measurement": "Fluoro Jade C stained cells in the hippocampal CA1 region", "setting": "[3]", "result": "110±20", "unit": "cells/mm"}]}
